Reference: US10711004B2 (Genentech, Inc., priority 2018, dated 2020)
Where two headings read alike, the source gives them in different places.

Biological target: human TRPA1 channel (Homo sapiens (Human), UniProt O75762)
Assay: hTRPA1 CHO Ca2+ FLIPR Tetra assay, block of cinnamaldehyde induced calcium influx
Assay type: cell-based
Conditions: for TRPA1 IC50 compared with 3-azabicyclo[3.1.0]hexene linker and cyclobutylene linker analogues: bicyclo[3.1.0]hexene linker compounds versus same-substituent analogues (compounds 16, 191; 26, 1); for IC50: CHO cells expressing TRPA1, Hill coefficient fixed to 1.5
Method in brief: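 Calcium-dye-loaded TRPA1-expressing CHO cells in HBSS/20 mM HEPES pH 7.4, 0.02% BSA were preincubated with compound for 10 or 90 min at room temperature. Calcium influx evoked by roughly an EC50 concentration of cinnamaldehyde was then read on FLIPR Tetra; IC50 came from curve fits with a fixed Hill coefficient.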

[1] = read-out: hTRPA1 IC50 (10 min), compounds incubated 10 minutes at room temperature before cinnamaldehyde agonist
[2] = read-out: hTRPA1 IC50 (90 min), compounds incubated 90 minutes at room temperature before cinnamaldehyde agonist

Sequence of human TRPA1 channel (O75762 whole entry): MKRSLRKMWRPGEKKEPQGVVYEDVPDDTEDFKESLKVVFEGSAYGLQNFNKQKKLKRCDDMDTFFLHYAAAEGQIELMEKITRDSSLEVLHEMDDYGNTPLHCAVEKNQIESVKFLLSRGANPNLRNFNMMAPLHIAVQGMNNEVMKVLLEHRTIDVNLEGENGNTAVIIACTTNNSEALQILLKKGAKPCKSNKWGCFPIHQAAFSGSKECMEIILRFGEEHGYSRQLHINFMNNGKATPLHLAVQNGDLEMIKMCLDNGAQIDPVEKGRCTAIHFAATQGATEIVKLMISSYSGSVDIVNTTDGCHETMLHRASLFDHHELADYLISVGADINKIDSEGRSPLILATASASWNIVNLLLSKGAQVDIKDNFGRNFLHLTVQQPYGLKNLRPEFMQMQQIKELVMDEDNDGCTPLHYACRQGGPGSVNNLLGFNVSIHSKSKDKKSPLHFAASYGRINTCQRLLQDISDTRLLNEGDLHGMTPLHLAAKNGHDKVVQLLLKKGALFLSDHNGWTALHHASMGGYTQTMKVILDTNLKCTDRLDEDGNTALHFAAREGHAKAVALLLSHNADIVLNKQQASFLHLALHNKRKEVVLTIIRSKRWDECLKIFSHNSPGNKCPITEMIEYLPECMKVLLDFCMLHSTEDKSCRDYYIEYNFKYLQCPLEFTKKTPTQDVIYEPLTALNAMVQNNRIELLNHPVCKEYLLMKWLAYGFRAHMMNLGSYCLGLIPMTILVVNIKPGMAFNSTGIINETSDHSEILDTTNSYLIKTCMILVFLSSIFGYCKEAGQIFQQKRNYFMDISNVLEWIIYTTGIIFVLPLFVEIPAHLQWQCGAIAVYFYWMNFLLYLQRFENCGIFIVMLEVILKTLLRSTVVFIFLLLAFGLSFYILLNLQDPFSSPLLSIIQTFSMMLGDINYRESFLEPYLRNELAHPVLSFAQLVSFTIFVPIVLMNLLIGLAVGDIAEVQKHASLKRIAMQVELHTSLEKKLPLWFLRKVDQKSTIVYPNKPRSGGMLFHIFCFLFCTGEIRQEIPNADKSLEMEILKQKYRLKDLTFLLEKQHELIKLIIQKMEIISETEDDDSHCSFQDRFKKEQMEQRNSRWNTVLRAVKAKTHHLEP

Structure (SMILES)	TRPA1 IC50 compared with 3-azabicyclo[3.1.0]hexene linker and cyclobutylene linker analogues	IC50 [1] [nM]	IC50 [2] [nM]
Cn1cnc2ncn(Cc3nc([C@H]4[C@@H]5C=C(c6ccccc6)C[C@@H]54)no3)c(=O)c21 [Example Compound 225, 7-methyl-1-((3-((1S,5S,6R)-3-phenylbicyclo[3.1.0]hex-2-en-6-yl)-1,2,4-oxadiazol-5-yl)methyl)-1,7-dihydro-6H-purin-6-one]	improved TRPA1 IC50 values	13.8	1.7
Cn1cnc2ncn(Cc3nc([C@@H]4[C@H]5C=C(c6ccccc6)C[C@H]54)no3)c(=O)c21 [Example Compound 226, 7-methyl-1-((3-((1R,5R,6S)-3-phenylbicyclo[3.1.0]hex-2-en-6-yl)-1,2,4-oxadiazol-5-yl)methyl)-1,7-dihydro-6H-purin-6-one]	improved TRPA1 IC50 values	21.6	9.9
Cc1ccnc2ncn(Cc3nc([C@@H]4[C@H]5C=C(c6ccccc6)C[C@H]54)no3)c(=O)c12 [Example Compound 227, 5-methyl-3-((3-((1R,5R,6S)-3-phenylbicyclo[3.1.0]hex-2-en-6-yl)-1,2,4-oxadiazol-5-yl)methyl)pyrido[2,3-d]pyrimidin-4(3H)-one]	–	14	–
Cn1cnc2ncn(Cc3nc([C@H]4[C@@H]5CN(c6ccccn6)C[C@@H]54)no3)c(=O)c21 [Example Compound 228, 7-methyl-1-((3-((1R,5S,6r)-3-(pyridin-2-yl)-3-azabicyclo[3.1.0]hexan-6-yl)-1,2,4-oxadiazol-5-yl)methyl)-1,7-dihydro-6H-purin-6-one]	–	223	130
Cn1cnc2ncn(Cc3nc([C@H]4[C@@H]5CN(c6ccc(Cl)c(F)c6)C[C@@H]54)no3)c(=O)c21 [Example Compound 229, 1-((3-((1R,5S,6r)-3-(4-chloro-3-fluorophenyl)-3-azabicyclo[3.1.0]hexan-6-yl)-1,2,4-oxadiazol-5-yl)methyl)-7-methyl-1,7-dihydro-6H-purin-6-one]	–	21.7	10
O=c1c2ccncc2ncn1Cc1nc([C@H]2[C@@H]3CN(c4cccc(Cl)c4)C[C@@H]32)no1 [Example Compound 230, 3-((3-((1R,5S,6r)-3-(3-chlorophenyl)-3-azabicyclo[3.1.0]hexan-6-yl)-1,2,4-oxadiazol-5-yl)methyl)pyrido[3,4-d]pyrimidin-4(3H)-one]	–	33.1	–
Cn1cnc2ncn(Cc3nc([C@H]4C[C@H](c5ccc6ccccc6c5)C4)no3)c(=O)c21 [Example Compound 231, 7-methyl-1-((3-((1r,3r)-3-(naphthalen-2-yl)cyclobutyl)-1,2,4-oxadiazol-5-yl)methyl)-1,7-dihydro-6H-purin-6-one]	–	57.3	–
Cc1cncc2ncn(Cc3nc([C@H]4C[C@](O)(c5ccc6ccccc6c5)C4)no3)c(=O)c12 [Example Compound 232, 3-((3-((1s,3s)-3-hydroxy-3-(naphthalen-2-yl)cyclobutyl)-1,2,4-oxadiazol-5-yl)methyl)-5-methylpyrido[3,4-d]pyrimidin-4(3H)-one]	–	–	4.8
Cc1ccnc2ncn(Cc3nc([C@H]4C[C@](O)(c5ccc6ccccc6c5)C4)no3)c(=O)c12 [Example Compound 233, 3-((3-((1s,3s)-3-hydroxy-3-(naphthalen-2-yl)cyclobutyl)-1,2,4-oxadiazol-5-yl)methyl)-5-methylpyrido[2,3-d]pyrimidin-4(3H)-one]	–	38.6	–
Cn1cnc2ncn(Cc3nc([C@H]4[C@@H]5CN(c6cccc(-c7ccccc7)c6)C[C@@H]54)no3)c(=O)c21 [Example Compound 234, 1-((3-((1R,5S,6r)-3-([1,1′-biphenyl]-3-yl)-3-azabicyclo[3.1.0]hexan-6-yl)-1,2,4-oxadiazol-5-yl)methyl)-7-methyl-1,7-dihydro-6H-purin-6-one]	–	340	–
Cn1cnc2ncn(Cc3nc([C@H]4[C@@H]5CN(c6cccc(C#N)c6)C[C@@H]54)no3)c(=O)c21 [Example Compound 235, 3-((1R,5S,6r)-6-(5-((7-methyl-6-oxo-6,7-dihydro-1H-purin-1-yl)methyl)-1,2,4-oxadiazol-3-yl)-3-azabicyclo[3.1.0]hexan-3-yl)benzonitrile]	–	73.5	17
Cn1cnc2ncn(Cc3nc([C@H]4[C@@H]5CN(c6cccc(Cl)c6F)C[C@@H]54)no3)c(=O)c21 [Example Compound 236, 1-((3-((1R,5S,6r)-3-(3-chloro-2-fluorophenyl)-3-azabicyclo[3.1.0]hexan-6-yl)-1,2,4-oxadiazol-5-yl)methyl)-7-methyl-1,7-dihydro-6H-purin-6-one]	–	21.3	4.4
Cn1cnc2ncn(Cc3nc([C@H]4[C@@H]5CN(c6ccc7sncc7c6)C[C@@H]54)no3)c(=O)c21 [Example Compound 237, 1-((3-((1R,5S,6r)-3-(benzo[d]isothiazol-5-yl)-3-azabicyclo[3.1.0]hexan-6-yl)-1,2,4-oxadiazol-5-yl)methyl)-7-methyl-1,7-dihydro-6H-purin-6-one]	–	18.2	2.1
Cc1cc(N)nc2ncn(Cc3nc([C@H]4[C@@H]5C=C(c6ccccc6)C[C@@H]54)no3)c(=O)c12 [Example Compound 238, 7-amino-5-methyl-3-[[3-[(1S,5S,6R)-3-phenyl-6-bicyclo[3.1.0]hex-2-enyl]-1,2,4-oxadiazol-5-yl]methyl]pyrido[2,3-d]pyrimidin-4-one]	–	11.3	1.5
Nc1ccc2c(=O)n(Cc3nc([C@H]4[C@@H]5C=C(c6ccccc6)C[C@@H]54)no3)cnc2n1 [Example Compound 239, 7-amino-3-[[3-[(1S,5S,6R)-3-phenyl-6-bicyclo[3.1.0]hex-2-enyl]-1,2,4-oxadiazol-5-yl]methyl]pyrido[2,3-d]pyrimidin-4-one]	–	10.5	5.3
Cn1cnc2ncn(Cc3nc([C@@H]4[C@H]5CC[C@H](Oc6ccccc6)[C@H]54)no3)c(=O)c21 [Example Compound 240, 7-methyl-1-[[3-[(1R,2S,5R,6R)-2-phenoxy-6-bicyclo[3.1.0]hexanyl]-1,2,4-oxadiazol-5-yl]methyl]purin-6-one]	–	254	80
CC(=O)Nc1nc2ncn(Cc3nc([C@H]4[C@@H]5C=C(c6ccccc6)C[C@@H]54)no3)c(=O)c2n1C [Example Compound 241, N-[7-methyl-6-oxo-1-[[3-[(1S,5S,6R)-3-phenyl-6-bicyclo[3.1.0]hex-2-enyl]-1,2,4-oxadiazol-5-yl]methyl]purin-8-yl]acetamide]	–	66.9	18
Cn1cnc2ncn(Cc3nc([C@@H]4[C@H]5C=C(c6ccc(F)c(F)c6F)C[C@H]54)no3)c(=O)c21 [Example Compound 242, 7-methyl-1-[[3-[(1R,5R,6S)-3-(2,3,4-trifluorophenyl)-6-bicyclo[3.1.0]hex-2-enyl]-1,2,4-oxadiazol-5-yl]methyl]purin-6-one]	–	19.1	6.3
Cn1c(NC2COC2)nc2ncn(Cc3nc([C@H]4[C@@H]5C=C(c6ccccc6)C[C@@H]54)no3)c(=O)c21 [Example Compound 243, 7-methyl-8-(oxetan-3-ylamino)-1-[[3-[(1S,5S,6R)-3-phenyl-6-bicyclo[3.1.0]hex-2-enyl]-1,2,4-oxadiazol-5-yl]methyl]purin-6-one]	–	101	45
